Test systems include MDA-MB-468 breast; SF-539 CNS; SN12C renal; CCRF-CEM leukemia; OVCAR-5 ovarian; NCI-H23 lung; SF-295 CNS; RXF 393 renal; HS 578T breast; UACC-62 melanoma; HCC-2998 colon.
Experiment in all cases: NCI tumour cell line growth inhibition, 48 h

Several values for one entry are separate records, joined by “and”; a condition that tells them apart may be missing. Identical values can stand only once.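 Interpolation was linear, between the two tested concentrations surrounding the appropriate level; five concentrations were tested over 48 hours in 96-well plates. GI50 = concentration required for 50% inhibition of growth. At the TGI there is no net growth.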

Consider 29 compounds from PubChem BioAssay (NCI).

For `Nc1nc(Cl)nc2c1ncn2C1CC(O)C(CO)O1` (configuration not stated), in the experiment on MDA-MB-468 breast, the GI50 was 56600 nM and the TGI was over 100000 nM.

With `NC(N)=Nc1nc2ccccc2o1`, in the experiment on MDA-MB-468 breast, the GI50 is over 100000 nM and the TGI is over 100000 nM.

As to `C[C@H](CCOc1cccc(CC(=O)O)c1)N(Cc1cccc(C(F)(F)F)c1Cl)CC(c1ccccc1)c1ccccc1`, in the experiment on MDA-MB-468 breast, the GI50 is 6730 nM and the TGI turned out to be 24000 nM.

Regarding `CNCCCNc1ccnc2cc(Cl)ccc12`, in the experiment with MDA-MB-468 breast, the GI50 is 12700 nM and the TGI came out at 33500 nM.

On to `C=C(C)[C@@H]1CC[C@]2(CN)CC[C@]3(C)[C@H](CC[C@@H]4[C@@]5(C)CCCNC(C)(C)[C@@H]5CC[C@]43C)[C@@H]12`, for which, in the experiment on MDA-MB-468 breast, the GI50 was 1750 nM and the TGI turned out to be 3520 nM.

Consider `O=c1[nH]c(-c2cccc(F)c2)cc2cc(F)ccc12`, for which, in the experiment with MDA-MB-468 breast, the GI50 is 1890 nM and the TGI is over 100000 nM.

Regarding `C=CC12CCN(CC1)C(C(O)c1ccnc3ccc(OC)cc13)C2` (configuration not stated), in the experiment on MDA-MB-468 breast, the GI50 is 57400 nM and the TGI was over 100000 nM.

`NNc1ncnc2nc[nH]c12`: in the experiment with MDA-MB-468 breast, the GI50 was 5790 nM and the TGI is over 100000 nM.

With `OC(c1cc2cc(Cl)ccc2c2cc(C(F)(F)F)ccc12)C1CCCCN1` (configuration not stated), in the experiment on MDA-MB-468 breast, the GI50 is 1660 nM and the TGI was 3200 nM.

For `COC(=O)/C=C/c1cc(OC(C)=O)c2c(c1)C(C(=O)OC)C(c1ccc(OC(C)=O)c(OC(C)=O)c1)O2` (configuration not stated), in the experiment on MDA-MB-468 breast, the GI50 is 1200 nM and the TGI is 17800 nM.

As for `Nc1c(C(=O)Nc2ccccn2)sc2nc3c(cc12)C(=O)CCC3`, in the experiment on MDA-MB-468 breast, the GI50 was 269 nM and the TGI came out at 67300 nM.

For the compound `O=C(Nc1ncc(Cc2cccc(C(F)(F)F)c2)s1)c1ccc2c(c1)OCCO2`, the GI50 in the experiment on MDA-MB-468 breast was 251 nM.

With `O=C(Nc1nc(-c2c[nH]c3ccccc23)cs1)c1n[nH]c(=O)c2ccccc12`, in the experiment with MDA-MB-468 breast, the GI50 was 77900 nM and the TGI was over 100000 nM.

As to `Brc1ccc(/C=C/c2n(Cc3ccc4ccccc4c3)c3ccccc3[n+]2Cc2ccc3ccccc3c2)cc1`, the GI50 was 1670 nM in the experiment on SF-539 CNS; 1640 nM with SN12C renal; 519 nM with CCRF-CEM leukemia; 1350 nM in the experiment with OVCAR-5 ovarian; 1330 nM in the experiment on NCI-H23 lung; 1400 nM with SF-295 CNS. For the same compound, the GI50 in the experiment with MDA-MB-468 breast was 1340 nM; in the experiment on RXF 393 renal, 1350 nM; with HS 578T breast, 1480 nM; with UACC-62 melanoma, 1530 nM; in the experiment on HCC-2998 colon it was 1490 nM. Also, the TGI is 3040 nM in the experiment on SF-539 CNS; 3030 nM with SN12C renal; over 100000 nM in the experiment with CCRF-CEM leukemia; 2660 nM in the experiment on OVCAR-5 ovarian; 2680 nM in the experiment on NCI-H23 lung; 2730 nM with SF-295 CNS. The TGI was 2730 nM with MDA-MB-468 breast; 2640 nM in the experiment on RXF 393 renal; 3870 nM with HS 578T breast; 2900 nM in the experiment with UACC-62 melanoma; 2830 nM in the experiment with HCC-2998 colon.

With `CCN(CCNS(C)(=O)=O)c1ccc(N)c(C)c1`, in the experiment with MDA-MB-468 breast, the GI50 is 2110 nM and the TGI came out at 5640 nM.

On to `CCOC(=O)c1c(C)c2c(n1Cc1ccccc1)CSCC2=O`, for which, in the experiment with MDA-MB-468 breast, the GI50 was 23300 nM and the TGI was over 100000 nM.

Take `NC(=O)c1cc(I)ccc1NC(=O)/C=C/c1ccccc1`: in the experiment with MDA-MB-468 breast, the GI50 was 732 nM and the TGI was found to be 47100 nM.

With `Cc1cccc(NC2=C(Cl)C(=O)c3nc(C)ccc3C2=O)c1`, in the experiment with MDA-MB-468 breast, the GI50 is 1270 nM and the TGI came out at 2890 nM.

On to `CCN(Cc1c(F)cccc1OC)c1ccc(CO)c(Cl)c1`, for which, in the experiment with MDA-MB-468 breast, the GI50 was 28.5 nM and the TGI was found to be 144 nM.

Regarding `N#CC(I)CS(=O)(=O)c1ccccc1` (configuration not stated), in the experiment with MDA-MB-468 breast, the GI50 was 3550 nM and the TGI was found to be 14100 nM.

Turning to `COc1cc(/C=C2\CCCCC3=C2N=C2SC(C)=CN2C3c2cc(OC)c(OC)c(OC)c2)cc(OC)c1OC` (configuration not stated), in the experiment on MDA-MB-468 breast, the GI50 was 185 nM and the TGI was over 100000 nM.

Regarding `CC[C@]1(O)C[C@H]2CN(CCc3c([nH]c4ccccc34)C(C(=O)OC)(c3cc4c(cc3OC)N(C)[C@H]3[C@@](O)(C(=O)OC)[C@H](OC(C)=O)[C@]5(CC)[C@@H]6C[C@@H]6CN6CC[C@]43[C@@H]65)C2)C1` (some centres not stated), in the experiment on MDA-MB-468 breast, the GI50 was 2.85 nM and the TGI turned out to be 9.17 nM.

For `CN(C)CCN1CCC(Cc2ccccc2)CC1`, in the experiment on MDA-MB-468 breast, the GI50 is over 80000 nM and the TGI was over 80000 nM.

Consider `CCn1cc(-c2ccnc3[nH]c(-c4cccc(CN(C)C)c4)cc23)c(-c2ccc(NC(=O)N(C)C)cc2)n1`, for which, in the experiment with MDA-MB-468 breast, the GI50 is 50.4 nM and 282 nM; the TGI was 16700 nM and > 10000 nM.

Turning to `CCCCCCn1c(-c2ccc(C(=O)O/N=C(\N)c3ccc4c(c3)OCO4)cc2)nc(-c2ccccc2)c1-c1ccccc1`, in the experiment with MDA-MB-468 breast, the GI50 was 2110 nM and the TGI was determined as 5620 nM.

On to `COc1ccc(CNc2c3ccccc3nc3ccccc23)cc1F`, for which, in the experiment on MDA-MB-468 breast, the GI50 is 1860 nM and the TGI worked out at 4810 nM.

Turning to `COc1ccc(/C=C\c2cc(OC)c(OC)c(OC)c2)cc1OCC(=O)O`, in the experiment with MDA-MB-468 breast, the GI50 was 49300 nM and the TGI is over 100000 nM.

On to `COc1ccc(-c2cc(=O)oc3c4c(ccc23)OCN(Cc2ccc(F)cc2)C4)cc1`, for which, in the experiment with MDA-MB-468 breast, the GI50 was 15700 nM and the TGI was found to be 36300 nM.

`COc1nc(=O)n(C2C=CC(=O)O2)cc1F` (configuration not stated): in the experiment with MDA-MB-468 breast, the GI50 was 1930 nM and the TGI was 9100 nM.
